This passage reports IC50 results from paper PMC12519464, “Dual-Site Inhibition of SARS-CoV‑2 RNA-Dependent RNA Polymerase by Small Molecules Able to Block Viral Replication Identified through a Computer-Aided Drug Discovery Approach” (ACS Infectious Diseases, 2025).

Where two headings read alike, the source gives them in different places. Where only a bound is given, the exact number is not on record here.

This assay deals with SARS-CoV-2 nsp12/7/8 (RTC) complex (Severe acute respiratory syndrome coronavirus 2, UniProt P0DTD1). The assay can be described thus: biochemical. Format: biochemical.
The mark [1] stands for this setting: read-out: IC50: compound concentration required to inhibit by 50% the SARS-CoV-2 RTC enzymatic activity.
The mark [2] stands for this setting: primer-extension PAGE assay, 150 nM RTC, 5% DMSO, 30 min preincubation at 37 °C, mean and SD of at least 3 independent experiments.

On to `CC[C@@]1([C@@H]2O[C@@H]([C@H]3O[C@@](O)(CO)[C@H](C)C[C@@H]3C)C[C@@H]2C)CC[C@H]([C@]2(C)CC[C@]3(C[C@H](O)[C@@H](C)[C@@H]([C@@H](C)[C@@H](OC)[C@H](C)C(=O)O)O3)O2)O1` [Monensin], for which the IC50 is greater than 100 µM.
Turning to `C=C(C)[C@@H]1CC[C@]2(C(=O)O)CC[C@]3(C)[C@H](CC[C@@H]4[C@@]5(C)CC[C@H](O[C@@H]6OC[C@H](O)[C@H](O)[C@H]6O[C@@H]6O[C@@H](C)[C@H](O)[C@@H](O)[C@H]6O)[C@@](C)(CO)[C@@H]5CC[C@]43C)[C@@H]12` [Pulchinenoside A], the IC50 under setting [1] came to 24.7 ± 0.42 µM.
`C[C@H]1CN(C2COC2)CCN1c1ccc(Nc2cc(-c3ccnc(N4CCn5c(cc6c5CC(C)(C)C6)C4=O)c3CO)cn(C)c2=O)nc1` [Fenebrutinib, reference compound] displayed an IC50 under setting [2] greater than 100 µM.
As for `C[C@H]1[C@H](C)CC[C@]2(C(=O)O)CC[C@]3(C)C(=CC[C@@H]4[C@@]5(C)C[C@@H](O)[C@H](O)[C@@](C)(CO)[C@@H]5CC[C@]43C)[C@H]12` [Asiatic Acid], the IC50 is greater than 100 µM.
In the case of `CC(C)=CCC[C@](C)(O)[C@H]1CC[C@]2(C)[C@@H]1[C@H](O)C[C@@H]1[C@@]3(C)CC[C@H](O)C(C)(C)[C@@H]3CC[C@]12C` [(20S)-Protopanaxadiol], under setting [1], the IC50 is greater than 100 µM.
Consider `C[C@@H]1O[C@@H](O[C@H]2CC[C@]3(C=O)[C@H]4CC[C@]5(C)[C@@H](c6ccc(=O)oc6)CC[C@]5(O)[C@@H]4CC[C@]3(O)C2)[C@H](O)[C@H](O)[C@H]1O[C@@H]1O[C@H](CO)[C@@H](O)[C@H](O)[C@H]1O` [Hellebrin], for which the IC50 is greater than 100 µM.
For `O=C(COc1ccc2c(-c3ccccc3)cc(=O)oc2c1)Nc1ccc(OCc2ccccc2)cc1` [2-(2-oxo-4-phenylchromen-7-yl)oxy-N-(4-phenylmethoxyphenyl)acetamide], the IC50 under setting [1] amounted to 80.5 ± 6.24 µM.
As for `C[C@@H]1CC[C@]2(C(=O)O)CC[C@]3(C)C(=CC[C@@H]4[C@@]5(C)CC[C@H](O)C(C)(C)[C@@H]5CC[C@]43C)[C@@H]2[C@]1(C)O` [Pomolic acid], the IC50 was greater than 100 µM.
Molecule `Cc1c(-c2c(F)cc(C(N)=O)c3[nH]c4c(c23)CC[C@H](C(C)(C)O)C4)cccc1-n1c(=O)c2cccc(F)c2n(C)c1=O` [BMS-986142, reference compound] displayed an IC50 under setting [2] of 22.8 ± 3.63 µM.
Same read-out and setting: the result for `C[C@H](NC(=O)c1c(N)nn2cccnc12)c1cc2cccc(C#Cc3cnn(C)c3)c2c(=O)n1-c1ccccc1` [Eganelisib, reference compound] reads greater than 100 µM.
The molecule `CC(=O)OC(C)(C)/C=C/C(=O)[C@](C)(O)[C@H]1[C@H](O)C[C@@]2(C)[C@@H]3CC=C4[C@@H](C=C(O)C(=O)C4(C)C)[C@]3(C)C(=O)C[C@]12C` [Cucurbitacin E] showed an IC50 of 47.2 ± 20.5 µM.
In the case of `O=C(NCC(O)CNC(=O)/C(=C\c1ccco1)NC(=O)c1ccccc1)/C(=C\c1ccco1)NC(=O)c1ccccc1` [N-[(E)-3-[[3-[[(E)-2-benzamido-3-(furan-2-yl)prop-2-enoyl]amino]-2-hydroxypropyl]amino]-1-(furan-2-yl)-3-oxoprop-1-en-2-yl]benzamide], the IC50 under setting [1] turned out to be 90.1 ± 14 µM.
With `CC1=C2C[C@H]3[C@@H](CC(=O)[C@H]4C[C@@H](O)CC[C@@]43C)[C@@H]2CC[C@]12O[C@@H]1C[C@H](C)CN[C@H]1[C@H]2C` [Peimisine], the IC50 under setting [1] is greater than 100 µM.
Take `C[C@H]1CC[C@@H]2N(C1)C[C@H]1[C@@H]3C[C@H]4[C@@H](CC(=O)[C@H]5C[C@@H](O[C@@H]6O[C@H](CO)[C@@H](O)[C@H](O)[C@H]6O)CC[C@@]54C)[C@@H]3CC[C@H]1[C@]2(C)O` [Imperialine 3-beta-D-glucoside]: the IC50 under setting [1] is greater than 100 µM.
Molecule `C=C(C)[C@@H]1CC[C@]2(C)CC[C@]3(C)[C@H](CC[C@@H]4[C@@]5(C)CC[C@H](O)C(C)(C)[C@@H]5CC[C@]43C)[C@@H]12` [Lupeol] displayed an IC50 greater than 100 µM.
As to `CC(C)=CC/C=C(\C)[C@H]1CC[C@]2(C)[C@@H]1[C@H](O)C[C@@H]1[C@@]3(C)CC[C@H](O[C@@H]4O[C@H](CO)[C@@H](O)[C@H](O)[C@H]4O[C@@H]4O[C@H](CO)[C@@H](O)[C@H](O)[C@H]4O)C(C)(C)[C@@H]3CC[C@]12C` [Ginsenoside Rg5], the IC50 is greater than 100 µM.
`CC(C)CC(=O)Nc1cncc(-c2ccc3[nH]nc(-c4nc5c(-c6cccc(F)c6)cncc5[nH]4)c3c2)c1` [Adavivint, reference compound] had an IC50 under setting [2] greater than 100 µM.
In turn, `C=C(CC[C@@H](C(=O)O)[C@H]1[C@H](O)C[C@@]2(C)C3=C(CC[C@]12C)[C@@]1(C)CC[C@H](OC(C)=O)C(C)(C)[C@@H]1CC3)C(C)C` [Pachymic acid] yielded an IC50 greater than 100 µM.
`COc1ccc2cc(S(=O)(=O)N[C@H](CC(=O)N[C@H](Cc3ccc(CN4[C@H](C)CCC[C@@H]4C)cc3)C(=O)N(C)C(C)C)c3ccc4c(c3)OCO4)ccc2c1` [SSR240612, reference compound]: the IC50 under setting [1] was 85.9 ± 4.35 µM.
The same measure, in the same setting: under `O=C(CCn1c2c(c3ccccc31)CCn1c-2nc2ccccc2c1=O)N1CCN(C2=Nc3ccccc3Oc3ccccc32)CC1` [13-{3-[4-(dibenzo[b,f][1,4]oxazepin-11-yl)piperazin-1-yl]-3-oxopropyl}-8,13-dihydroindolo[2',3':3,4]pyrido[2,1-b]quinazolin-5(7H)-one] stands greater than 100 µM; under `CC(C)=CCC[C@@](C)(O)[C@H]1CC[C@]2(C)[C@@H]1[C@H](O)C[C@@H]1[C@@]3(C)CC[C@H](O)C(C)(C)[C@@H]3[C@@H](O[C@@H]3O[C@H](CO)[C@@H](O)[C@H](O)[C@H]3O)C[C@]12C` [(20R)-Ginsenoside Rh1], greater than 100 µM.
On to `C=C(C)[C@@H]1CC[C@]2(C)CC[C@]3(C)[C@H](CC[C@@H]4[C@@]5(C)CCC(=O)C(C)(C)[C@@H]5CC[C@]43C)[C@@H]12` [Lupenone], for which the IC50 was greater than 100 µM.
The molecule `C[C@@H]1CC[C@]2(C(=O)O)CC[C@]3(C)C(=CC[C@@H]4[C@@]5(C)CC[C@H](O)[C@@](C)(CO)[C@@H]5CC[C@]43C)[C@@H]2[C@]1(C)O` [Rotundic acid] came in with an IC50 under setting [2] greater than 100 µM.
In the case of `C[C@H]1O[C@@H](O[C@H]2CC[C@@]3(C)[C@@H](CC[C@]4(C)[C@@H]3C=C[C@]35OC[C@@]6(CCC(C)(C)C[C@H]63)[C@H](O)C[C@]54C)[C@]2(C)CO)[C@H](O)[C@@H](O[C@@H]2O[C@H](CO)[C@@H](O)[C@H](O)[C@H]2O)[C@H]1O` [Saikosaponin D], under setting [1], the IC50 was greater than 100 µM.
Turning to `CC(=O)O[C@@H](C[C@@H](C)C1=C2C[C@H](O)[C@H]3[C@@]4(C)CCC(=O)C(C)(C)[C@@H]4CC[C@]3(C)[C@@]2(C)CC1=O)[C@H]1OC1(C)C` [Alisol C monoacetate], the IC50 under setting [1] is greater than 100 µM.
`CC(C)(C)NC(=O)c1ccc(Oc2cc(F)c(CC(=O)O)cc2Cl)c(NS(=O)(=O)c2ccc(C3CC3)cc2Cl)c1` [Vidupiprant, reference compound] had an IC50 under setting [2] of 63.5 ± 24.3 µM.
As to `Cc1oc2c(C)c3oc(=O)c(CC(=O)N4C[C@H]5C[C@@H](C4)c4cccc(=O)n4C5)c(C)c3cc2c1-c1ccccc1` [(1S,9R)-11-[2-(2,5,9-trimethyl-7-oxo-3-phenylfuro[3,2-g]chromen-6-yl)acetyl]-7,11-diazatricyclo[7.3.1.02,7]trideca-2,4-dien-6-one], the IC50 under setting [1] was determined as 28.3 ± 6.24 µM.
Still for that read-out and setting: under `CC(C)=CCCC(C(=O)O)C1CCC2(C)C3=C(CCC12C)C1(C)CCC(=O)C(C)(C)C1CC3` (stereo not shown) [3-Dehydrotrametenolic acid] stands greater than 100 µM.
